According to patent US20240269088A1, “PAIN RELIEF PATCH” (CS MEDICA A/S, priority 2021, published 2024):

Test system: pain
Assay: Comparison of skin patches formulated with type A versus type B crystalline CBD
Assay type: in vivo
From the text: The “potency” and/or “activity” of “type A” CBD can e.g. be determined by comparing the effect using essentially identical compositions with the exception of the type and/or quantity of CBD used. Said potency, activity and or effect can e.g. be determined essentially as disclosed in the Examples by replacing the placebo with the “B-type” CBD comprising formulation. Alternatively, the potency can be determined in the quantity of CBD needed to provide the same effect, such as pain relief.
Two different sets of skin patches are provided according to Example 1, e.g. formulation A or F, the only difference being that the crystalline CBD used in the formulation is either of type A (needle-like crystals; FIG. 9) or type B (bunch/cluster-like; FIG. 10).
Type A crystalline CBD is sourced from Enecta, while type B CBD is sourced from Pharma Hemp.
Such tests can e.g. be performed, mutatis mutandis, according to Examples 1-4.

## C=C(C)[C@@H]1CCC(C)=C[C@H]1c1c(O)cc(CCCCC)cc1O [type A CBD, Cannabidiol]
Observed by the inventors, see Example 6
  Potency of CBD with needle-like crystal structure compared with CBD of crystal structure B: significantly more potent
Skin patches according to Example 1, e.g. formulation A or F, only the crystalline CBD differs
  Activity of skin patch with type A CBD compared with comparable skin patch with type B CBD: significantly more active
